# Columns and labels:
# [1] = tested on: U-87 MG tumor-bearing mice; assay: Biodistribution in U-87 MG tumor-bearing mice with IPBA; format: in vivo; details: IPBA 10 eq at 1 h postinjection
# Description: To prepare tumor-bearing mice, 5 × 10^6 of U-87 MG cells were subcutaneously inoculated into the right shoulder of 4-week-old female BALB/c nude mice (13–15 g, Japan SLC, Inc.) as previously reported. At approximately 10-day postinoculation of U-87 MG cells, they were used for each experiment after tumor size reached 0.3–0.5 cm^3.
# At 1-h postinjection of [^211At]1 (37 kBq) and [^125I]2 (37 kBq), IPBA (1.9 mg, 6.1 µmol) was administered at 10 molar equivalent of blood albumin. Mice were sacrificed at 65-, 70-min, 2-, 4-, 12-, and 24-h postinjection of [^211At]1 and [^125I]2. Tissues of interest were removed and weighed, and radioactivity counts of ^125I and ^211At were determined with an auto well gamma counter (ARC-7010; Hitachi Medical, Ltd., Tokyo, Japan) and corrected for background radiation. To determine the radioactivity excreted from the body for 24 h, mice were housed in metabolic cages (Metabolica, Sugiyama-Gen Co., Ltd., Tokyo, Japan).
# [2] = mouse, in vivo; cited from earlier work
substance,measurement,setting,value
Ga-DOTA-K([^125I]IPBA)-c(RGDfK) [[^125I]2],"Radioactivity, Blood",[1]; 65 min after administration,11.19 (0.16)^ ** % injected activity per gram
same,"Radioactivity, Bone",[1]; 65 min after administration,4.94 (1.52) % injected activity per gram
same,"Radioactivity, Brain",[1]; 65 min after administration,0.31 (0.02) % injected activity per gram
same,"Radioactivity, Heart",[1]; 65 min after administration,4.77 (0.10) % injected activity per gram
same,"Radioactivity, Kidney",[1]; 65 min after administration,17.52 (1.13)^ * % injected activity per gram
same,"Radioactivity, L. intestine",[1]; 65 min after administration,3.10 (0.11) % injected activity per gram
same,"Radioactivity, Liver",[1]; 65 min after administration,5.29 (0.52)^ * % injected activity per gram
same,"Radioactivity, Lung",[1]; 65 min after administration,10.10 (0.52)^ ** % injected activity per gram
same,"Radioactivity, Muscle",[1]; 65 min after administration,2.62 (0.24) % injected activity per gram
same,"Radioactivity, Neck",[1]; 65 min after administration,0.05 (0.01)^ * % injected activity
same,"Radioactivity, Pancreas",[1]; 65 min after administration,2.66 (0.10) % injected activity per gram
same,"Radioactivity, S. intestine",[1]; 65 min after administration,4.93 (0.21)^ * % injected activity per gram
same,"Radioactivity, Spleen",[1]; 65 min after administration,3.95 (0.26) % injected activity per gram
same,"Radioactivity, Stomach",[1]; 65 min after administration,1.33 (0.31) % injected activity
same,"Radioactivity, Tumor",[1]; 65 min after administration,11.58 (0.32)^ * % injected activity per gram
same,"Radioactivity, Blood",[1]; 70 min after administration,7.91 (0.45)^ *** % injected activity per gram
same,"Radioactivity, Bone",[1]; 70 min after administration,2.30 (0.36) % injected activity per gram
same,"Radioactivity, Brain",[1]; 70 min after administration,0.24 (0.04) % injected activity per gram
same,"Radioactivity, Heart",[1]; 70 min after administration,3.25 (0.25)^ ** % injected activity per gram
same,"Radioactivity, Kidney",[1]; 70 min after administration,11.87 (1.35)^ *** % injected activity per gram
same,"Radioactivity, L. intestine",[1]; 70 min after administration,2.29 (0.24) % injected activity per gram
same,"Radioactivity, Liver",[1]; 70 min after administration,3.64 (0.49)^ * % injected activity per gram
same,"Radioactivity, Lung",[1]; 70 min after administration,6.75 (0.74)^ ** % injected activity per gram
same,"Radioactivity, Muscle",[1]; 70 min after administration,1.53 (0.18) % injected activity per gram
same,"Radioactivity, Neck",[1]; 70 min after administration,0.06 (0.01) % injected activity
same,"Radioactivity, Pancreas",[1]; 70 min after administration,1.82 (0.14)^ * % injected activity per gram
same,"Radioactivity, S. intestine",[1]; 70 min after administration,3.77 (0.37)^ ** % injected activity per gram
same,"Radioactivity, Spleen",[1]; 70 min after administration,2.83 (0.36) % injected activity per gram
same,"Radioactivity, Stomach",[1]; 70 min after administration,0.78 (0.15) % injected activity
same,"Radioactivity, Tumor",[1]; 70 min after administration,11.24 (1.19)^ ** % injected activity per gram
same,"Radioactivity, Blood",[1]; 2 h after administration,5.69 (0.44)^ *** % injected activity per gram
same,"Radioactivity, Bone",[1]; 2 h after administration,2.73 (0.47) % injected activity per gram
same,"Radioactivity, Brain",[1]; 2 h after administration,0.24 (0.02) % injected activity per gram
same,"Radioactivity, Heart",[1]; 2 h after administration,2.24 (0.23)^ ** % injected activity per gram
same,"Radioactivity, Kidney",[1]; 2 h after administration,8.39 (0.51) % injected activity per gram
same,"Radioactivity, L. intestine",[1]; 2 h after administration,2.48 (1.12) % injected activity per gram
same,"Radioactivity, Liver",[1]; 2 h after administration,2.31 (0.17)^ * % injected activity per gram
same,"Radioactivity, Lung",[1]; 2 h after administration,4.74 (0.12)^ * % injected activity per gram
same,"Radioactivity, Muscle",[1]; 2 h after administration,1.73 (0.60)^ * % injected activity per gram
same,"Radioactivity, Neck",[1]; 2 h after administration,0.08 (0.04) % injected activity
same,"Radioactivity, Pancreas",[1]; 2 h after administration,1.68 (0.36) % injected activity per gram
same,"Radioactivity, S. intestine",[1]; 2 h after administration,2.41 (0.71) % injected activity per gram
same,"Radioactivity, Spleen",[1]; 2 h after administration,2.33 (0.14) % injected activity per gram
same,"Radioactivity, Stomach",[1]; 2 h after administration,0.77 (0.08) % injected activity
same,"Radioactivity, Tumor",[1]; 2 h after administration,14.36 (1.54)^ ** % injected activity per gram
same,"Radioactivity, Blood",[1]; 4 h after administration,1.71 (0.12)^ ** % injected activity per gram
same,"Radioactivity, Bone",[1]; 4 h after administration,1.46 (0.16) % injected activity per gram
same,"Radioactivity, Brain",[1]; 4 h after administration,0.18 (0.01) % injected activity per gram
same,"Radioactivity, Heart",[1]; 4 h after administration,1.22 (0.12) % injected activity per gram
same,"Radioactivity, Kidney",[1]; 4 h after administration,5.00 (0.36)^ ** % injected activity per gram
same,"Radioactivity, L. intestine",[1]; 4 h after administration,4.61 (1.33)^ ** % injected activity per gram
same,"Radioactivity, Liver",[1]; 4 h after administration,1.32 (0.06) % injected activity per gram
same,"Radioactivity, Lung",[1]; 4 h after administration,2.31 (0.06)^ *** % injected activity per gram
same,"Radioactivity, Muscle",[1]; 4 h after administration,0.52 (0.05)^ * % injected activity per gram
same,"Radioactivity, Neck",[1]; 4 h after administration,0.05 (0.04) % injected activity
same,"Radioactivity, Pancreas",[1]; 4 h after administration,0.72 (0.15) % injected activity per gram
same,"Radioactivity, S. intestine",[1]; 4 h after administration,3.09 (0.79) % injected activity per gram
same,"Radioactivity, Spleen",[1]; 4 h after administration,1.83 (0.10)^ * % injected activity per gram
same,"Radioactivity, Stomach",[1]; 4 h after administration,0.65 (0.09) % injected activity
same,"Radioactivity, Tumor",[1]; 4 h after administration,12.42 (0.89) % injected activity per gram
same,"Radioactivity, Blood",[1]; 12 h after administration,1.65 (0.20)^ *** % injected activity per gram
same,"Radioactivity, Bone",[1]; 12 h after administration,0.72 (0.09)^ * % injected activity per gram
same,"Radioactivity, Brain",[1]; 12 h after administration,0.07 (0.01)^ ** % injected activity per gram
same,"Radioactivity, Heart",[1]; 12 h after administration,1.02 (0.07)^ ** % injected activity per gram
same,"Radioactivity, Kidney",[1]; 12 h after administration,2.71 (0.17)^ *** % injected activity per gram
same,"Radioactivity, L. intestine",[1]; 12 h after administration,0.75 (0.05)^ *** % injected activity per gram
same,"Radioactivity, Liver",[1]; 12 h after administration,0.70 (0.08)^ *** % injected activity per gram
same,"Radioactivity, Lung",[1]; 12 h after administration,2.07 (0.11)^ *** % injected activity per gram
same,"Radioactivity, Muscle",[1]; 12 h after administration,0.37 (0.01)^ *** % injected activity per gram
same,"Radioactivity, Neck",[1]; 12 h after administration,0.06 (0.02)^ * % injected activity
same,"Radioactivity, Pancreas",[1]; 12 h after administration,0.50 (0.02)^ ** % injected activity per gram
same,"Radioactivity, S. intestine",[1]; 12 h after administration,0.68 (0.10)^ *** % injected activity per gram
same,"Radioactivity, Spleen",[1]; 12 h after administration,1.03 (0.05)^ ** % injected activity per gram
same,"Radioactivity, Stomach",[1]; 12 h after administration,0.39 (0.02)^ ** % injected activity
same,"Radioactivity, Tumor",[1]; 12 h after administration,7.08 (0.74)^ ** % injected activity per gram
same,"Radioactivity, Blood",[1]; 24 h after administration,1.55 (0.17)^ * % injected activity per gram
same,"Radioactivity, Bone",[1]; 24 h after administration,0.48 (0.04) % injected activity per gram
same,"Radioactivity, Brain",[1]; 24 h after administration,0.05 (0.01) % injected activity per gram
same,"Radioactivity, Heart",[1]; 24 h after administration,0.92 (0.58) % injected activity per gram
same,"Radioactivity, Kidney",[1]; 24 h after administration,1.67 (0.24) % injected activity per gram
same,"Radioactivity, L. intestine",[1]; 24 h after administration,0.38 (0.22) % injected activity per gram
same,"Radioactivity, Liver",[1]; 24 h after administration,0.56 (0.10)^ * % injected activity per gram
same,"Radioactivity, Lung",[1]; 24 h after administration,1.58 (0.42) % injected activity per gram
same,"Radioactivity, Muscle",[1]; 24 h after administration,0.26 (0.02) % injected activity per gram
same,"Radioactivity, Neck",[1]; 24 h after administration,0.03 (0.00) % injected activity
same,"Radioactivity, Pancreas",[1]; 24 h after administration,0.27 (0.05) % injected activity per gram
same,"Radioactivity, S. intestine",[1]; 24 h after administration,0.26 (0.11) % injected activity per gram
same,"Radioactivity, Spleen",[1]; 24 h after administration,0.72 (0.16)^ * % injected activity per gram
same,"Radioactivity, Stomach",[1]; 24 h after administration,0.20 (0.04)^ * % injected activity
same,"Radioactivity, Tumor",[1]; 24 h after administration,5.51 (0.05)^ * % injected activity per gram
same,"Radioactivity excreted, Feces",[1]; until 24 h postinjection,8.40 (3.14) % injected activity
same,"Radioactivity excreted, Urine",[1]; until 24 h postinjection,56.09 (4.93)^ ** % injected activity
same,"Radioactivity, Blood",[2],11.80 (0.75) % injected activity per gram
same,"Radioactivity, Bone",[2],1.50 (0.26) % injected activity per gram
same,"Radioactivity, Brain",[2],0.29 (0.03) % injected activity per gram
same,"Radioactivity, Heart",[2],3.81 (0.18) % injected activity per gram
same,"Radioactivity, Kidney",[2],3.70 (0.65) % injected activity per gram
same,"Radioactivity, L. intestine",[2],1.20 (0.25) % injected activity per gram
same,"Radioactivity, Liver",[2],1.96 (0.18) % injected activity per gram
same,"Radioactivity, Lung",[2],5.60 (0.52) % injected activity per gram
same,"Radioactivity, Muscle",[2],1.32 (0.16) % injected activity per gram
same,"Radioactivity, Neck",[2],0.09 (0.02) % injected activity
same,"Radioactivity, Pancreas",[2],2.05 (0.25) % injected activity per gram
same,"Radioactivity, S. intestine",[2],1.58 (0.31) % injected activity per gram
same,"Radioactivity, Spleen",[2],1.61 (0.12) % injected activity per gram
same,"Radioactivity, Stomach",[2],0.87 (0.11) % injected activity
